Data from publication PMC5914168 (ChemMedChem, 2017).
Several values for one entry are separate records, joined by “and”; a condition that tells them apart may be missing. Equal values may be shown once.

Tests used:
GAK = details: cited from earlier work
[1] = biological target: STK16 kinase domain (13-305) (Homo sapiens, UniProt O75716); experiment: TR-FRET ligand binding displacement assay, STK16
[2] = biological target: BMP2K kinase domain (38-345) (Homo sapiens, UniProt Q9NSY1); experiment: TR-FRET ligand binding displacement assay, BMP2K
Sequence of BMP2K kinase domain (38-345) (Q9NSY1 38-345): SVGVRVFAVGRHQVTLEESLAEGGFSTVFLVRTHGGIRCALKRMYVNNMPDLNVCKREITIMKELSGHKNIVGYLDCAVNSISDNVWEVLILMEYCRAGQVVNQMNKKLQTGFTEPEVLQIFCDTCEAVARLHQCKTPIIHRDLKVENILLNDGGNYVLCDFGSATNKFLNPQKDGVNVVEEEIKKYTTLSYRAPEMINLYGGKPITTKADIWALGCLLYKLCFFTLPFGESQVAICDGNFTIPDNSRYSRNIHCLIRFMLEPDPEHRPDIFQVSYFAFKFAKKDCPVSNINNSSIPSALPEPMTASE

[3] = biological target: AAK1 kinase domain (31-396) (Homo sapiens, UniProt Q2M2I8); experiment: TR-FRET ligand binding displacement assay, AAK1
Sequence of AAK1 kinase domain (31-396) (Q2M2I8 31-396): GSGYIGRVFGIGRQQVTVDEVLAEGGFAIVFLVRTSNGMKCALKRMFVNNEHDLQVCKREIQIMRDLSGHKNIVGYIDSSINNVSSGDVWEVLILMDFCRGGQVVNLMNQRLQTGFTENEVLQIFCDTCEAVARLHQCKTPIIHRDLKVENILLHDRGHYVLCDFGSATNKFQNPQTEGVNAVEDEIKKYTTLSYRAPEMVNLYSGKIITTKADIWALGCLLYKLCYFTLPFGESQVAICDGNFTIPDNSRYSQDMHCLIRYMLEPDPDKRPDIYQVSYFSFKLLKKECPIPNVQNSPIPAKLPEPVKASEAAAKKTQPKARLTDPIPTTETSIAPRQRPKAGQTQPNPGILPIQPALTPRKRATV

[4] = biological target: T1, GAK kinase domain (12-347) (Homo sapiens, UniProt O14976); experiment: TR-FRET ligand binding displacement assay, GAK; details: for NAK selectivity (ratio of GAK Ki and Ki of nearest NAK family member): selectivity against the nearest NAK family member
T1 sequence (O14976 12-347): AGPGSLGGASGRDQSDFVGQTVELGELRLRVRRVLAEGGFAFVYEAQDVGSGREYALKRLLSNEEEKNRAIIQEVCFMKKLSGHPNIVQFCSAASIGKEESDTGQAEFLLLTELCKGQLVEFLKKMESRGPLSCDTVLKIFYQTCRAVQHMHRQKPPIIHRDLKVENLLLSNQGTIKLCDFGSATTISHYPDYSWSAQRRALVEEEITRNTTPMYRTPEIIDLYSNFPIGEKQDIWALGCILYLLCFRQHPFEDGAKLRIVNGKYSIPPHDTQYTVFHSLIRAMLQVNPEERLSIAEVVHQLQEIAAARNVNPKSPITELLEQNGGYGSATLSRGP

[5] = biological target: T2, N-terminal Nano Luciferase/GAK fusion (NL-GAK) in HEK293 cells (Homo sapiens, UniProt O14976); experiment: GAK nanoBRET cellular target engagement assay; details: for IC50: NanoBRET GAK IC50, HEK293 cells, 8-point dose response, average of 2 experiments
T2 sequence (O14976 1-1311): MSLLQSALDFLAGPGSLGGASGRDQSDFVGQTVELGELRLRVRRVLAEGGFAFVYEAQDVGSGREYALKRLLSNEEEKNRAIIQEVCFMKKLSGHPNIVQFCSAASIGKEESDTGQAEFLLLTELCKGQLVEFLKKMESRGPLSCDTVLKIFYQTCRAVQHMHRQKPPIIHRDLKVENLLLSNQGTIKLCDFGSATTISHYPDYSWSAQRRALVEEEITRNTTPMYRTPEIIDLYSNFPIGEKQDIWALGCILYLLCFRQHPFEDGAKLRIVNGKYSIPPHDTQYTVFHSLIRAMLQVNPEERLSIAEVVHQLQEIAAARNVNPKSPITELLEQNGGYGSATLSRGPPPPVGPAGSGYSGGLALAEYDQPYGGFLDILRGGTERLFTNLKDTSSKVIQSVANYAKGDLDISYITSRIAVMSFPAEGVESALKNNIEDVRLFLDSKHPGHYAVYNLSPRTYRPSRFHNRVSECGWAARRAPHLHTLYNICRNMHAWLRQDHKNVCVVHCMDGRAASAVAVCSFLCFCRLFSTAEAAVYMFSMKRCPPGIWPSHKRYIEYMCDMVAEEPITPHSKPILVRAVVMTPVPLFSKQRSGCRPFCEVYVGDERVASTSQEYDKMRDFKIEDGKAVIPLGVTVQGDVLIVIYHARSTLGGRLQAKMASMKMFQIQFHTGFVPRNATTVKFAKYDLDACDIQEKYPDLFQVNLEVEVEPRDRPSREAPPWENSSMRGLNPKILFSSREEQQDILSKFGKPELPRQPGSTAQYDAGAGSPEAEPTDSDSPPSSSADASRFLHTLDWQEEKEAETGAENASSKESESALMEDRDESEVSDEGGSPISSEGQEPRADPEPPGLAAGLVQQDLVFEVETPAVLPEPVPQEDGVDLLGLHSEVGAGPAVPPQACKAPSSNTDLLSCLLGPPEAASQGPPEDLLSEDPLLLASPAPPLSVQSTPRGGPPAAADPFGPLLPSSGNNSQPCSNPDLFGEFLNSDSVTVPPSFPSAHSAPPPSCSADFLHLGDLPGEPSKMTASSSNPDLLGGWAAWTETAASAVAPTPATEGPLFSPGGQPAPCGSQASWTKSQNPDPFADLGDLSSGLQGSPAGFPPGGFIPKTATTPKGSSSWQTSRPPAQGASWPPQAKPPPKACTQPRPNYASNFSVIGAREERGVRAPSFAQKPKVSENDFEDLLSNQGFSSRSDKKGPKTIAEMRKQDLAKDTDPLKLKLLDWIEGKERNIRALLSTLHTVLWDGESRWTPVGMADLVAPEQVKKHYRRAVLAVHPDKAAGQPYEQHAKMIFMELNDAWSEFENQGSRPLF

[6] = biological target: T3, kinases in SUM159 cell lysate (>240 protein kinases profiled) (Homo sapiens, UniProt O14976); experiment: Multiplexed inhibitor beads / mass spectrometry; format: binding; details: SUM159 lysate, highest concentration (10 nM), 30 minutes on ice
T3 sequence (O14976 1-1311): T2 sequence (O14976 1-1311)

[7] = test system: kinases in SUM159 cell lysate (>240 protein kinases profiled); experiment: Multiplexed inhibitor beads / mass spectrometry; format: binding; details: SUM159 cell lysate

Sequence of STK16 kinase domain (13-305) (O75716 13-305): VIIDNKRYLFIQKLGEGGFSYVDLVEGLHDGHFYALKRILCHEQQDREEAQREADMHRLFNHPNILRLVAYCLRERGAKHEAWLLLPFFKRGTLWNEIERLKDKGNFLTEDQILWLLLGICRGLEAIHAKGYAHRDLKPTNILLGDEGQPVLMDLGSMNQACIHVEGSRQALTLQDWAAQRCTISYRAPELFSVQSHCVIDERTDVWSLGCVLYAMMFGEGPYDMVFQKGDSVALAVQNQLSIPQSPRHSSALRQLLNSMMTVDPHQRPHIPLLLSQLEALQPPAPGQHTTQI

Ki [1] [nM] | Ki [2] [nM] | Ki [3] [nM] | IC50 [5] | Structure (SMILES) | off target activity on GAK, potency (GAK) | also measured
– | – | – | – | COc1cc2ncnc(Nc3ccc(F)c(Cl)c3)c2cc1OCCCN1CCOCC1 [gefitinib] | low nanomolar range | –
– | – | – | – | C#Cc1cccc(Nc2ncnc3cc(OCCOC)c(OCCOC)cc23)c1 [erlotinib] | low nanomolar range | –
– | – | – | – | Cc1nc(Nc2ncc(C(=O)Nc3c(C)cccc3Cl)s2)cc(N2CCN(CCO)CC2)n1 [dasatinib] | low nanomolar range | –
> 100000 | > 100000 | > 100000 | 780 nM | COc1cc(Nc2ccnc3ccccc23)cc(OC)c1OC [Compound 41, N-(3,4,5-Trimethoxyphenyl)quinolin-4-amine] | – | fold drop in GAK potency ([4]; relative to 1): 10 fold; NAK selectivity (ratio of GAK Ki and Ki of nearest NAK family member) [4]: >2500; fold decrease in cellular potency ([5]; nanoBRET, relative to 1): 4 fold
– | > 100000 | > 100000 | 330 nM | COc1cc(Nc2ccnc3ccc(C(C)(C)C)cc23)cc(OC)c1OC [Compound 45, 6-(tert-Butyl)-N-(3,4,5-trimethoxyphenyl)quinolin-4-amine] | – | Ki [4]: 8.1 nM
– | – | – | ~350 nM and 350 nM | COc1cc(Nc2ccnc3ccc(C#N)cc23)cc(OC)c1OC [Compound 46, 4-((3,4,5-Trimethoxyphenyl)amino)quinoline-6-carbonitrile] | – | –
– | – | – | – | COc1cc(Nc2c(C#N)cnc3cc(OCCCN4CCN(C)CC4)c(OC)cc23)c(Cl)cc1Cl [bosutinib] | low nanomolar range | –
> 100000 | > 100000 | > 100000 | 4400 nM | COc1cc(Nc2ccnc3cc(F)cc(F)c23)cc(OC)c1OC [Compound 44, 5,7-Difluoro-N-(3,4,5-trimethoxyphenyl)quinolin-4-amine] | – | Ki [4]: 140 nM; NAK selectivity (ratio of GAK Ki and Ki of nearest NAK family member) [4]: >720

Structure (SMILES) | Ki [1] [nM] | Ki [2] [nM] | Ki [3] [nM] | IC50 [5] | off target activity on GAK, potency (GAK) | also measured
COc1cc2nccc(Nc3cc(OC)c(OC)c(OC)c3)c2cc1OC [Compound 49, 6,7-Dimethoxy-N-(3,4,5-trimethoxyphenyl)quinolin-4-amine] | > 100000 | – | – | – | – | fold cellular potency increase ([5]; nanoBRET, over the single methoxy substitutions 48 & 50): 14–17 fold; GAK depletion in MIB/MS [6]: ~10 fold; kinases bound in MIB/MS (kinome selectivity) [7]: binding to only GAK and RIPK2
